Measurements: PubChem BioAssay (NCI)
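Assay format: 96-well plates, 48-hour exposure. Abbreviation: GI50, concentration required for 50% inhibition of growth. Definition used: TGI = concentration required for complete inhibition of growth.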

Tests used:
Test in all cases: NCI tumour cell line growth inhibition, 48 h
SK-OV-3 ovarian = tested on: SK-OV-3 ovarian
COLO 205 colon = tested on: COLO 205 colon
HCC-2998 colon = tested on: HCC-2998 colon
UACC-257 melanoma = tested on: UACC-257 melanoma
HOP-62 NSCLC = tested on: HOP-62 NSCLC
HCT-15 colon = tested on: HCT-15 colon
NCI-H522 lung = tested on: NCI-H522 lung
RXF 393 renal = tested on: RXF 393 renal
HL-60(TB) leukemia = tested on: HL-60(TB) leukemia
HCT-116 colon = tested on: HCT-116 colon
SW-620 colon = tested on: SW-620 colon
SNB-19 CNS = tested on: SNB-19 CNS
IGROV1 ovarian = tested on: IGROV1 ovarian
BT-549 breast = tested on: BT-549 breast
MDA-MB-435 = tested on: MDA-MB-435
MDA-MB-231 breast = tested on: MDA-MB-231 breast
CCRF-CEM leukemia = tested on: CCRF-CEM leukemia
SK-MEL-28 melanoma = tested on: SK-MEL-28 melanoma
KM12 colon = tested on: KM12 colon
OVCAR-3 ovarian = tested on: OVCAR-3 ovarian
SK-MEL-5 melanoma = tested on: SK-MEL-5 melanoma
SF-268 CNS = tested on: SF-268 CNS
UACC-62 melanoma = tested on: UACC-62 melanoma
NCI-H226 lung = tested on: NCI-H226 lung
NCI-H460 lung = tested on: NCI-H460 lung
PC-3 prostate = tested on: PC-3 prostate
SF-295 CNS = tested on: SF-295 CNS
EKVX NSCLC = tested on: EKVX NSCLC
NCI/ADR-RES ovarian = tested on: NCI/ADR-RES ovarian
RPMI-8226 leukemia = tested on: RPMI-8226 leukemia
M14 melanoma = tested on: M14 melanoma
UO-31 renal = tested on: UO-31 renal
LOX IMVI melanoma = tested on: LOX IMVI melanoma
SK-MEL-2 melanoma = tested on: SK-MEL-2 melanoma
T-47D breast = tested on: T-47D breast
MDA-MB-468 breast = tested on: MDA-MB-468 breast
U251 CNS = tested on: U251 CNS
K-562 leukemia = tested on: K-562 leukemia
MCF7 breast = tested on: MCF7 breast
OVCAR-8 ovarian = tested on: OVCAR-8 ovarian
SN12C renal = tested on: SN12C renal
HOP-92 NSCLC = tested on: HOP-92 NSCLC
OVCAR-5 ovarian = tested on: OVCAR-5 ovarian
A549 NSCLC = tested on: A549 NSCLC
TK-10 renal = tested on: TK-10 renal
HT29 colon = tested on: HT29 colon
SF-539 CNS = tested on: SF-539 CNS
HS 578T breast = tested on: HS 578T breast
NCI-H23 lung = tested on: NCI-H23 lung
ACHN renal = tested on: ACHN renal
786-0 renal = tested on: 786-0 renal
SNB-75 CNS = tested on: SNB-75 CNS
OVCAR-4 ovarian = tested on: OVCAR-4 ovarian
MOLT-4 leukemia = tested on: MOLT-4 leukemia
A498 renal = tested on: A498 renal
MALME-3M melanoma = tested on: MALME-3M melanoma
SR leukemia = tested on: SR leukemia
DU-145 prostate = tested on: DU-145 prostate
CAKI-1 renal = tested on: CAKI-1 renal

O=C(Nc1ccc(OCc2ccc(Cl)cc2)cc1)Nc1ccc(Cl)c(C(F)(F)F)c1
GI50 (SK-OV-3 ovarian): 3.42 µM
TGI (SK-OV-3 ovarian): 11.6 µM
GI50 (COLO 205 colon): 1.97 µM
TGI (COLO 205 colon): 4.23 µM
GI50 (HCC-2998 colon): 2.89 µM
TGI (HCC-2998 colon): 11.7 µM
GI50 (UACC-257 melanoma): 2.33 µM
TGI (UACC-257 melanoma): 5.96 µM
GI50 (HOP-62 NSCLC): 2.64 µM
TGI (HOP-62 NSCLC): 8.18 µM
GI50 (HCT-15 colon): 1.87 µM
TGI (HCT-15 colon): 10.6 µM
GI50 (NCI-H522 lung): 1.82 µM
TGI (NCI-H522 lung): 5.28 µM
GI50 (RXF 393 renal): 2.89 µM
TGI (RXF 393 renal): 6.17 µM
GI50 (HL-60(TB) leukemia): 2.33 µM
TGI (HL-60(TB) leukemia): 7.07 µM
GI50 (HCT-116 colon): 1.87 µM
TGI (HCT-116 colon): 7.71 µM
GI50 (SW-620 colon): 2.56 µM
TGI (SW-620 colon): 10.3 µM
GI50 (SNB-19 CNS): 2.45 µM
TGI (SNB-19 CNS): 7.99 µM
GI50 (IGROV1 ovarian): 3.25 µM
TGI (IGROV1 ovarian): 13.5 µM
GI50 (BT-549 breast): 2.37 µM
TGI (BT-549 breast): 5.63 µM
GI50 (MDA-MB-435): 2.59 µM
TGI (MDA-MB-435): 8.51 µM
GI50 (MDA-MB-231 breast): 2.45 µM
TGI (MDA-MB-231 breast): 6.88 µM
GI50 (CCRF-CEM leukemia): 3.05 µM
TGI (CCRF-CEM leukemia): 79.6 µM
GI50 (SK-MEL-28 melanoma): 2.84 µM
TGI (SK-MEL-28 melanoma): 10.4 µM
GI50 (KM12 colon): 2.62 µM
TGI (KM12 colon): 9.32 µM
GI50 (OVCAR-3 ovarian): 1.98 µM
TGI (OVCAR-3 ovarian): 8.35 µM
GI50 (SK-MEL-5 melanoma): 1.75 µM
TGI (SK-MEL-5 melanoma): 3.35 µM
GI50 (SF-268 CNS): 3.18 µM
TGI (SF-268 CNS): 13.2 µM
GI50 (UACC-62 melanoma): 2.4 µM
TGI (UACC-62 melanoma): 10.6 µM
GI50 (NCI-H226 lung): 2 µM
TGI (NCI-H226 lung): 5.27 µM
GI50 (NCI-H460 lung): 1.47 µM
TGI (NCI-H460 lung): 3.99 µM
GI50 (PC-3 prostate): 1.19 µM
TGI (PC-3 prostate): 13.8 µM
GI50 (SF-295 CNS): 1.42 µM
TGI (SF-295 CNS): 3.7 µM
GI50 (EKVX NSCLC): 2.18 µM
TGI (EKVX NSCLC): 5.95 µM
GI50 (NCI/ADR-RES ovarian): 1.74 µM
TGI (NCI/ADR-RES ovarian): 5.41 µM
GI50 (RPMI-8226 leukemia): 1.55 µM
TGI (RPMI-8226 leukemia): 13.5 µM
GI50 (M14 melanoma): 2.8 µM
TGI (M14 melanoma): 12.1 µM
GI50 (UO-31 renal): 1.82 µM
TGI (UO-31 renal): 6.73 µM
GI50 (LOX IMVI melanoma): 1.85 µM
TGI (LOX IMVI melanoma): 3.57 µM
GI50 (SK-MEL-2 melanoma): 2 µM
TGI (SK-MEL-2 melanoma): 4.6 µM
GI50 (T-47D breast): 2.06 µM
TGI (T-47D breast): 10.1 µM
GI50 (MDA-MB-468 breast): 1.54 µM
TGI (MDA-MB-468 breast): 4.41 µM
GI50 (U251 CNS): 1.92 µM
TGI (U251 CNS): 4.55 µM
GI50 (K-562 leukemia): 1.72 µM
TGI (K-562 leukemia): 65.7 µM
GI50 (MCF7 breast): 1.95 µM
TGI (MCF7 breast): 5.96 µM
GI50 (OVCAR-8 ovarian): 2.32 µM
TGI (OVCAR-8 ovarian): 7.19 µM
GI50 (SN12C renal): 2.03 µM
TGI (SN12C renal): 6.46 µM
GI50 (HOP-92 NSCLC): 1.96 µM
TGI (HOP-92 NSCLC): 5.37 µM
GI50 (OVCAR-5 ovarian): 3.01 µM
TGI (OVCAR-5 ovarian): 17.4 µM
GI50 (A549 NSCLC): 2.19 µM
TGI (A549 NSCLC): 8.07 µM
GI50 (TK-10 renal): 2.74 µM
TGI (TK-10 renal): 9.69 µM
GI50 (HT29 colon): 2.78 µM
TGI (HT29 colon): 10.2 µM
GI50 (SF-539 CNS): 2.4 µM
TGI (SF-539 CNS): 5.98 µM
GI50 (HS 578T breast): 2.27 µM
TGI (HS 578T breast): 6.7 µM
GI50 (NCI-H23 lung): 1.39 µM
TGI (NCI-H23 lung): 3.83 µM
GI50 (ACHN renal): 2.37 µM
TGI (ACHN renal): 7.62 µM
GI50 (786-0 renal): 4.09 µM
TGI (786-0 renal): 13.3 µM
GI50 (SNB-75 CNS): 1.42 µM
TGI (SNB-75 CNS): 5.45 µM
GI50 (OVCAR-4 ovarian): 2.37 µM
TGI (OVCAR-4 ovarian): 9.36 µM
GI50 (MOLT-4 leukemia): 3.02 µM
TGI (MOLT-4 leukemia): 27.2 µM
GI50 (A498 renal): 1.96 µM
TGI (A498 renal): 5.21 µM
GI50 (MALME-3M melanoma): 1.75 µM
TGI (MALME-3M melanoma): 4.51 µM
GI50 (SR leukemia): 2.95 µM
TGI (SR leukemia): 15.7 µM
GI50 (DU-145 prostate): 2.83 µM
TGI (DU-145 prostate): 10.7 µM
GI50 (CAKI-1 renal): 2.31 µM
TGI (CAKI-1 renal): 6.83 µM
